Active and inactive are the calls of the source.
Tests used:
[1] = target: T1, Voltage-gated N-type calcium channel alpha-1B subunit/Amyloid beta A4 precursor protein-binding family A member 1 (Homo sapiens, UniProt Q00975+Q02410); format: protein assay
[2] = target: T1, Voltage-gated N-type calcium channel alpha-1B subunit/Amyloid beta A4 precursor protein-binding family A member 1; format: protein assay; remark: listed apart in the source
[3] = target: T2, Ubiquitin-conjugating enzyme E2 N (Homo sapiens, UniProt P61088); format: functional;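 also: Dose-response confirmation in a TR-FRET assay detecting UBC13-driven polyubiquitin chain formation, inhibition measured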
T2 sequence (P61088 whole entry): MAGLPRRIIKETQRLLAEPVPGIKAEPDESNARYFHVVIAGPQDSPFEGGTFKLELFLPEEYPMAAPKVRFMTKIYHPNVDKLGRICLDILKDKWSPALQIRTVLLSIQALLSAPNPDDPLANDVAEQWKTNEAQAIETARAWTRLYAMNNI

[4] = target: T3, Short transient receptor potential channel 4 (Mus musculus, UniProt Q9QUQ5); assay: mouse TRPC4 channel activators, dose response, cell-based, HEK293 TRPC4/mu-opioid, Fluo-4 calcium (AID 434937); format: functional
T3 sequence (Q9QUQ5 whole entry): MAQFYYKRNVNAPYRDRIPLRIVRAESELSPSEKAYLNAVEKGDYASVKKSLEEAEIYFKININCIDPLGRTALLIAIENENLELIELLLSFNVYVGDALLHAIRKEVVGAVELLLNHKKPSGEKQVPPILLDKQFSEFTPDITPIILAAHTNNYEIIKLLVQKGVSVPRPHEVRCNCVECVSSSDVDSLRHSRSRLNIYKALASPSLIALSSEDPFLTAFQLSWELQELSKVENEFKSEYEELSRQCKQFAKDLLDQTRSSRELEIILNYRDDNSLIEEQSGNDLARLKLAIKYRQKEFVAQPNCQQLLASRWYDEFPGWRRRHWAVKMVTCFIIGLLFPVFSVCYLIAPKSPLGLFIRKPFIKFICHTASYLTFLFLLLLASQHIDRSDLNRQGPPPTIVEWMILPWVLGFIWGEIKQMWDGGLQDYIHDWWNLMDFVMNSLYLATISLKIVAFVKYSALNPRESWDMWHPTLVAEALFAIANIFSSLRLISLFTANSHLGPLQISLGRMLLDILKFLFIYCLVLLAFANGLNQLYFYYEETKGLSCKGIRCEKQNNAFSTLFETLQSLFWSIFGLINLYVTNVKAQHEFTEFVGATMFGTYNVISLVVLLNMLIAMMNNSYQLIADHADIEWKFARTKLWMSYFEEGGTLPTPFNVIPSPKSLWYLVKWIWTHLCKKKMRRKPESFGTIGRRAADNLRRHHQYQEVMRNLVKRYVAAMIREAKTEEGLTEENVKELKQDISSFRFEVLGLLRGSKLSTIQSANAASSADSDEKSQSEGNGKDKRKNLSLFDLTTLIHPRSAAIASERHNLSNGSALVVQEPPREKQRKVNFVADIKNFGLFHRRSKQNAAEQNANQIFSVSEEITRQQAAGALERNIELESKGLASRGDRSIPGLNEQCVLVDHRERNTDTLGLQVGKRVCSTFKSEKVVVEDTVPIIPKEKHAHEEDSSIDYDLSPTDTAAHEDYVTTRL

[5] = growth suppression of PTEN-null colon cells, dose response, cell-based, HCT116 PTEN knockout (AID 1047); format: functional;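 also: HCT116 colon tumor cells with PTEN knocked out; cells exposed to compound for 60 hours before readout; potency for loss of cell viability measured by luminescence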
Large T antigen = Large T antigen (Simian virus 40, UniProt P03070); format: functional, Betapolyomavirus macacae;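 also: Confirmatory-stage PubChem screen for compounds that inhibit SV40 T antigen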
[6] = growth suppression of beta-catenin-knockout colon cells, dose response, cell-based, HCT116, human colon tumor (AID 1045); format: functional;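 also: HCT116 colon tumor cells with beta catenin knocked out; cells exposed to compound for 60 hours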
[7] = target: T4, Zinc finger protein mex-5 (Caenorhabditis elegans, UniProt Q9XUB2); assay: MEX-5/TCR-2 RNA interaction inhibitors, dose response, biochemical, C. elegans, fluorescence polarization (AID 1960)
T4 sequence (Q9XUB2 whole entry): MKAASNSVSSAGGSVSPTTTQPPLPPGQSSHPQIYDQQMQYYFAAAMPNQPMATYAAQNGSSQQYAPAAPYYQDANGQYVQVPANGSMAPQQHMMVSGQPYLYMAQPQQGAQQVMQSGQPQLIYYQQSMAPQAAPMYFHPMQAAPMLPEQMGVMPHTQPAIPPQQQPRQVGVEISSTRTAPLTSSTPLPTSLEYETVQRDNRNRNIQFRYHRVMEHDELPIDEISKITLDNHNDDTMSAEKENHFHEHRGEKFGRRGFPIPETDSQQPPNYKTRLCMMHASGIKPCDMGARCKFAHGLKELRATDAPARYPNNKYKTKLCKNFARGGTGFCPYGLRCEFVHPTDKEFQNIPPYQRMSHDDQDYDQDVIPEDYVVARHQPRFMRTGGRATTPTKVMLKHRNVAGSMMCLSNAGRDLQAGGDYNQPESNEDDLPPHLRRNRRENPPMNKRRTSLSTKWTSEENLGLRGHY

[8] = target: T5, RNA-binding protein pos-1 (Caenorhabditis elegans, UniProt G5EF15); assay: inhibitors of POS-1/mex-3 RNA binding, dose response, biochemical, fluorescence polarization (AID 1964);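 also: purified POS-1 fused to maltose binding protein made in E. coli; potency of compounds blocking POS-1 binding to fluorescent RNA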
T5 sequence (G5EF15 whole entry): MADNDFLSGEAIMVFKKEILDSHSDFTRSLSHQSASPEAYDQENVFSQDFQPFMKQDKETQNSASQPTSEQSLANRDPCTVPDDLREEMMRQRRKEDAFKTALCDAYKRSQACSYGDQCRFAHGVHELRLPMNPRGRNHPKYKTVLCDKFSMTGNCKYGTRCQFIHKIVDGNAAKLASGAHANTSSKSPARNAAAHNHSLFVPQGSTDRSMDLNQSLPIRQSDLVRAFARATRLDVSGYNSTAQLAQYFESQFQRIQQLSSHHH

[9] = target: Induced myeloid leukemia cell differentiation protein Mcl-1 (Homo sapiens, UniProt Q07820); format: functional
[10] = microbe, parasite or virus in culture; format: functional; conditions: Mycobacterium tuberculosis
Protein RecA = target: T6, Protein RecA (Mycobacterium tuberculosis, UniProt P9WHJ3); assay: Fluorescence Cell-Free Homogeneous Dose Retest to Identify Inhibitors of RecA-Intein Splicing Activity. [Related pubchem assays (depositor defined):AID2097, AID2223, AID489010, AID492950]; format: functional
T6 sequence (P9WHJ3 whole entry): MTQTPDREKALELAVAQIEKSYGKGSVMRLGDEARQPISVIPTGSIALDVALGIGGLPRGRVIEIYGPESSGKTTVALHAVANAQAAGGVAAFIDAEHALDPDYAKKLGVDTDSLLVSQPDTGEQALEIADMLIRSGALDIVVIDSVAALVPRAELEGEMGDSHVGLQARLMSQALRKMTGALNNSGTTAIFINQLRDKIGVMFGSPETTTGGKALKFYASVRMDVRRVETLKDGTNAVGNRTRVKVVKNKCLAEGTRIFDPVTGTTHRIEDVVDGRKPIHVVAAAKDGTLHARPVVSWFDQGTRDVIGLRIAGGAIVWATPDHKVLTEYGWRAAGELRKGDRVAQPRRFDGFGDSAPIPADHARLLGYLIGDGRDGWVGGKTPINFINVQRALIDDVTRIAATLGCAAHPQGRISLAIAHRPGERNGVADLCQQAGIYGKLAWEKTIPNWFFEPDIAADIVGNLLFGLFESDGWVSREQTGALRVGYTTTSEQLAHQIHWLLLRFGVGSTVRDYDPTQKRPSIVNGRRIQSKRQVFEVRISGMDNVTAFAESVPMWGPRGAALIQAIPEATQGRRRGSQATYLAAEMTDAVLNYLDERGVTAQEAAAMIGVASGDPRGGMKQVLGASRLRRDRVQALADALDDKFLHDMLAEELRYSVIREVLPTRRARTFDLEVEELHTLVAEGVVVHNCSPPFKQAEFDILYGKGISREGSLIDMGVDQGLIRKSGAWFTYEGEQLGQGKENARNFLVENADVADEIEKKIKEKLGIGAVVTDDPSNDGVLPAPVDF

[11] = system: Streptococcus sp. 'group A'; assay: growth inhibition of control SK(-) GAS strain, dose response, counter-screen for streptokinase expression inhibitor project, luminescence, kanamycin, BacTiterGlo, confirmation (AID 1900); format: functional, organism-based
Streptokinase A = target: T7, Streptokinase A (Streptococcus pyogenes serotype M1, UniProt P10520); assay: S. pyogenes streptokinase expression inhibitors, potency, dose response, plasminogen activation absorbance, OD405 (AID 1914); format: functional, Streptococcus pyogenes M1 GAS;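 also: secreted streptokinase activity via plasminogen activation per viability signal from cell pellet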
T7 sequence (P10520 whole entry): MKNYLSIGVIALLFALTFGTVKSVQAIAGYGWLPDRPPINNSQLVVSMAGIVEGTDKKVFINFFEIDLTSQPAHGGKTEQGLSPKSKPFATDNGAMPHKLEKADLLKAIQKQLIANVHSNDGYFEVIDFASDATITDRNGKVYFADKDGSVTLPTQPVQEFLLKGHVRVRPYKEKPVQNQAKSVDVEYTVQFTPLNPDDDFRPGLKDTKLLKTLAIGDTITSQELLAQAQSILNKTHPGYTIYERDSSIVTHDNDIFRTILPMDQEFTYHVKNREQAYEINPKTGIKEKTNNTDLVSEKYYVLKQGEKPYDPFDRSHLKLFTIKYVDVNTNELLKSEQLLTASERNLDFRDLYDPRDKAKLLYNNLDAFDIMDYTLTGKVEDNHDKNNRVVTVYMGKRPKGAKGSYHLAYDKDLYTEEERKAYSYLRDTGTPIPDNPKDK

Streptococcus = assay: Group A Streptococcus viability loss, dose response, counter-screen for streptokinase expression inhibitor project, luminescence, BacTiterGlo (AID 1915); format: functional, organism-based;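 also: potency for reduction of bacterial viability or growth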
[12] = target: T8, Replicative DNA helicase DnaB (Mycobacterium tuberculosis, UniProt P9WMR3); assay: DnaB intein splicing inhibitors, dose response, biochemical, cell-free fluorescence (AID 449749); format: functional
T8 sequence (P9WMR3 whole entry): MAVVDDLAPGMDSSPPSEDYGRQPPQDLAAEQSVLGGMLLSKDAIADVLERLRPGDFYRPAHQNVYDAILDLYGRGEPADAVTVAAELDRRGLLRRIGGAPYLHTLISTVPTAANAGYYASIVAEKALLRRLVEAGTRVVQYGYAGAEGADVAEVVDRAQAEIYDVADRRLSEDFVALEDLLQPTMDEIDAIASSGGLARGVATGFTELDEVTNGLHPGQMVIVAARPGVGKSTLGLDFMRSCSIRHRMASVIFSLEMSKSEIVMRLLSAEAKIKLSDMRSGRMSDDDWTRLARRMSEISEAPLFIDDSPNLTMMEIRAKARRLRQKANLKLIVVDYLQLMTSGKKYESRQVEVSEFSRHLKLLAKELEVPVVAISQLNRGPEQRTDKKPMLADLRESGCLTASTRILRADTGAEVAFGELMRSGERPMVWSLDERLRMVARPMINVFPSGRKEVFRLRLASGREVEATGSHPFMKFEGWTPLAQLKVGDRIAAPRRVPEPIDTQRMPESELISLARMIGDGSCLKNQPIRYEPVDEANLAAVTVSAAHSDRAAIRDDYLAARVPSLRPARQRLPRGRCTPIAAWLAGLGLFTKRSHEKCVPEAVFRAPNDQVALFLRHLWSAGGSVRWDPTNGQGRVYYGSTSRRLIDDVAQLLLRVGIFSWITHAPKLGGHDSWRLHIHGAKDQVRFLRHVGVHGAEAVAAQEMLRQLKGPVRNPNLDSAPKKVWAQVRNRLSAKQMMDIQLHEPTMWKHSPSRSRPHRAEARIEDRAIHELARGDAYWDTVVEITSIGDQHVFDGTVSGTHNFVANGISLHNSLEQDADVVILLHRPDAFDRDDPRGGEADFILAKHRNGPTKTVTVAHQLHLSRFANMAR

H9c2 = assay: cells; format: functional, cell-based; conditions: Rattus norvegicus, H9c2, Myocardium;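 also: confirmatory concentration-response retest of ultra-high-throughput screening hits for modulation of myocardial damage; cell death induced by hydrogen peroxide oxidative stress; compound pretreatment for 60 min then peroxide exposure for 2 h; potency is for protecting the cells against peroxide damage rather than for killing them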

Chain of Induced myeloid leukemia cell differentiation protein Mcl-1 (Q07820 whole entry): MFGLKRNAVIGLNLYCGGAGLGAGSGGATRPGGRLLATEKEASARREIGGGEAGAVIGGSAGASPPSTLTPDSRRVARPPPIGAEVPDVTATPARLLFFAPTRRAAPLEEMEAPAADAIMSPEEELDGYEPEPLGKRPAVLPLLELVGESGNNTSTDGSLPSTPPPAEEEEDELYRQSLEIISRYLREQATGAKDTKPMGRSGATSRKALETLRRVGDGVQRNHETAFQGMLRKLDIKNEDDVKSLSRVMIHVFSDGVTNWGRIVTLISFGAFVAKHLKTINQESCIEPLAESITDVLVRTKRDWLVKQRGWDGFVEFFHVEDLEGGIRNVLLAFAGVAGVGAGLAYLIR
T1 sequence (Q00975 whole entry): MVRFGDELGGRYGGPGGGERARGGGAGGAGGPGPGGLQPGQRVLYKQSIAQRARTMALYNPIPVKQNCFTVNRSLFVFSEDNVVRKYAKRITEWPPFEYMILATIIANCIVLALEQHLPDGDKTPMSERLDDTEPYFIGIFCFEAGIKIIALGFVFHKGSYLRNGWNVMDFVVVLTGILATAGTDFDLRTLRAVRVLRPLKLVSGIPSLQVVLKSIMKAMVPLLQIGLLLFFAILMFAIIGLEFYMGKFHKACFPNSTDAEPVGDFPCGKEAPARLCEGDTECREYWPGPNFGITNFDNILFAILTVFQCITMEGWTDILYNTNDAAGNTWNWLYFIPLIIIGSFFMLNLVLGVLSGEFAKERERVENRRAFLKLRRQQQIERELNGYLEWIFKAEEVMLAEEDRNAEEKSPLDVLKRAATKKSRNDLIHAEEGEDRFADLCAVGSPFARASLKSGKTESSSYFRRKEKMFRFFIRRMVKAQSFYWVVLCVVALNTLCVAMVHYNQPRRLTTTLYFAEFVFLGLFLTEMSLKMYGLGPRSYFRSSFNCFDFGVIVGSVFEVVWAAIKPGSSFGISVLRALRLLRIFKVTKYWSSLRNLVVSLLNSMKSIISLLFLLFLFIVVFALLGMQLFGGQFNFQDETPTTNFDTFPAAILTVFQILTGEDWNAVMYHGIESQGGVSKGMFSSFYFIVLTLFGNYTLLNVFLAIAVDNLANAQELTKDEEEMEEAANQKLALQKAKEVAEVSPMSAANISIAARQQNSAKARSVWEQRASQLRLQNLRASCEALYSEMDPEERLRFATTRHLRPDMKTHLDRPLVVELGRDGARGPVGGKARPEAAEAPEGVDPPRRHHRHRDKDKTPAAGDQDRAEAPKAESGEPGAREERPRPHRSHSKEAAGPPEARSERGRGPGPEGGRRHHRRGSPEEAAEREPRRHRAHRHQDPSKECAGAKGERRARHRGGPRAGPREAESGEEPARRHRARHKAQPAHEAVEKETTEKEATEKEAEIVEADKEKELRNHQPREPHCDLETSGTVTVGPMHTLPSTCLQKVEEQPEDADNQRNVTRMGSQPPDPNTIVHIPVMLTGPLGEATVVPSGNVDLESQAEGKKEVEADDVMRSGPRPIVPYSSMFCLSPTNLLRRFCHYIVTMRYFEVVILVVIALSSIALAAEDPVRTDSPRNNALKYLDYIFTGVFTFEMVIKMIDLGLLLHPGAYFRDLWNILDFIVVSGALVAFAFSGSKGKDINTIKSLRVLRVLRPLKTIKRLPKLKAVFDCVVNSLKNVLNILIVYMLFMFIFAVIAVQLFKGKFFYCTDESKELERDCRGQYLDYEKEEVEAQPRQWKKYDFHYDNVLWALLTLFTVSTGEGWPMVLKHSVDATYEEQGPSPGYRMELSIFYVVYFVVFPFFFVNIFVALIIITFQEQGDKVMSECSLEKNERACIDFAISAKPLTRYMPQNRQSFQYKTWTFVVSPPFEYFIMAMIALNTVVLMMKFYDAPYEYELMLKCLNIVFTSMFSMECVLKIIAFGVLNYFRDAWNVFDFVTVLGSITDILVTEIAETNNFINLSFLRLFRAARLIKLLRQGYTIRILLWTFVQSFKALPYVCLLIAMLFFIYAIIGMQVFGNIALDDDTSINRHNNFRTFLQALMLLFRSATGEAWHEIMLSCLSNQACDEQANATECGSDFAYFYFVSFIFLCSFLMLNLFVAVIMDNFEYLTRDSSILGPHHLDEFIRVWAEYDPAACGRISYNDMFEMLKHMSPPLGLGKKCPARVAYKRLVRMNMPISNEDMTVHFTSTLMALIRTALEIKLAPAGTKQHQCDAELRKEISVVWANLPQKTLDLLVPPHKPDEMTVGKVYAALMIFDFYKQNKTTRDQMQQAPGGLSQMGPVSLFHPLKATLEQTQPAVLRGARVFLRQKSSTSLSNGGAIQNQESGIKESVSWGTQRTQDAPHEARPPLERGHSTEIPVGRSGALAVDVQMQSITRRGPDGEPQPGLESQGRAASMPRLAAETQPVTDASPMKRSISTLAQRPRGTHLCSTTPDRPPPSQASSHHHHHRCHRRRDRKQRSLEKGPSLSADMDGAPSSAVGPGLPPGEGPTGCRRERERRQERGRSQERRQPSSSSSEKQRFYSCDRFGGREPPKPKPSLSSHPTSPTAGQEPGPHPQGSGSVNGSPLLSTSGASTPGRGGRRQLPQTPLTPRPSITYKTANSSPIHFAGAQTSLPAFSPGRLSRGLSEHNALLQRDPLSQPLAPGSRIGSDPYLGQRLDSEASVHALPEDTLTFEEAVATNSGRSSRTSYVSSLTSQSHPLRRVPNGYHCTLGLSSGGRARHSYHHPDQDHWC
T1 sequence (Q02410 whole entry): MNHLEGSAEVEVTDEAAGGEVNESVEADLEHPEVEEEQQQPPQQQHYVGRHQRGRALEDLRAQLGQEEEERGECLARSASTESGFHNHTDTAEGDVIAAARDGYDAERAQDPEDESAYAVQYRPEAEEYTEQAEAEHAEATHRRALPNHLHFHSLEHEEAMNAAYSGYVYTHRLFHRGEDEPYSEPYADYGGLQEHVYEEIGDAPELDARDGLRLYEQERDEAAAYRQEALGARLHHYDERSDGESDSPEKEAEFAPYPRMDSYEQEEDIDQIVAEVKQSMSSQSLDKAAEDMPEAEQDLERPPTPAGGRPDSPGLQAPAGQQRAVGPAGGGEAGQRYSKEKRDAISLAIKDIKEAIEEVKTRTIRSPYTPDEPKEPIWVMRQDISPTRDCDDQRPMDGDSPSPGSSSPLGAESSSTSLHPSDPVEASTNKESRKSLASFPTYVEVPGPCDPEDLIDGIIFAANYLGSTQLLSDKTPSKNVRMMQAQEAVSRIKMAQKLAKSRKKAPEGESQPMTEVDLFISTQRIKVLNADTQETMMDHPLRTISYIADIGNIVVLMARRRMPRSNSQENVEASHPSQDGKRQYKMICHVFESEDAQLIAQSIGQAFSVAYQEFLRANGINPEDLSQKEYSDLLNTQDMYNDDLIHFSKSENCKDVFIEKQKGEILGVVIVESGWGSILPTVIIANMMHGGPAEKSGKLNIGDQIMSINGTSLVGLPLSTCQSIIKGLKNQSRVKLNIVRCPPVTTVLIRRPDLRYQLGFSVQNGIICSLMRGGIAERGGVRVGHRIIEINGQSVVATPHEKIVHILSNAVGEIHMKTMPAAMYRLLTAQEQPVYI
Chain of Large T antigen (P03070 whole entry): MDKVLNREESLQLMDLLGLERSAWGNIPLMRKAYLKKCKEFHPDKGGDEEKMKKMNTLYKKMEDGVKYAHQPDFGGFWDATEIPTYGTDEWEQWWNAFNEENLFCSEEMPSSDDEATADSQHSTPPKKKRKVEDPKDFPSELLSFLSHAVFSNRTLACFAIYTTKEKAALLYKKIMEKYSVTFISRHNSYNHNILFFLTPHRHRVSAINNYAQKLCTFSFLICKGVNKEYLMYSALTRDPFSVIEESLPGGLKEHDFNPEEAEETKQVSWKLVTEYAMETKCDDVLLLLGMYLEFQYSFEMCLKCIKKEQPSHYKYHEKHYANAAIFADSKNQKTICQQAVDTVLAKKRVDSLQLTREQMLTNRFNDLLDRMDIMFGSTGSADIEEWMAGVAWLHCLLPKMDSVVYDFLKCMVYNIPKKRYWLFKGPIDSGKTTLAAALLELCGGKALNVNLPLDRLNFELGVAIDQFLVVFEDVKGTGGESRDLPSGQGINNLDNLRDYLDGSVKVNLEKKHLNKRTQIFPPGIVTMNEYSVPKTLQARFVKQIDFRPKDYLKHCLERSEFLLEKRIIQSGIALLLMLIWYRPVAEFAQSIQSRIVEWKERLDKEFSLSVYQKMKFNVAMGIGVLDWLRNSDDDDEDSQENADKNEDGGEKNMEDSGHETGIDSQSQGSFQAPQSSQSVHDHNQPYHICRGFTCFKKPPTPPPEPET

COc1ccc(NC(=O)c2cc3ccc4c5ccccc5[nH]c4c3cc2O)cc1
IC50 [1]: > 50 µM (inactive)
IC50 [2]: 9.55 µM (active)

O=C(CCS(=O)(=O)c1ccccc1)Nc1ccc(-c2nc3ccccc3s2)cc1
IC50 [1]: > 50 µM (inactive)
IC50 [2]: 12.5 µM (active)

CCN1C(=O)CC(c2ccccc2)N(C2CCCC2)c2nc(Nc3ccc(C(=O)NC4CCN(C)CC4)cc3OC)ncc21 (stereo unspecified)
IC50 [3]: > 20 µM (inactive)

O=C(Cc1cccc(F)c1F)NC1CCCN(Cc2ccc(Cl)cc2)C1 (stereo unspecified)
EC50 [4]: 0.944 µM (active)

COc1ccc(OC)c(CCNC(=O)Cn2sc3nc(C)cc(C)c3c2=O)c1
IC50 [1]: > 50 µM (inactive)
IC50 [2]: 5.66 µM (active)
EC50 [5]: 18.3 µM (active)
IC50 (Large T antigen): 22.1 µM (active)
EC50 [6]: 16.7 µM (active)

C1=CC2c3ccccc3NC(c3ccncc3)C2C1 (stereo unspecified)
EC50 [7]: 56.6 µM (inconclusive)
EC50 [8]: > 300 µM (not active)
IC50 [9]: 2.42 µM (active)

CCN1C(=O)N/C(=C/c2ccc(C)o2)C1=O
IC50 [1]: 22.6 µM (active)
IC50 [2]: 3.29 µM (active)

COCCCn1c(SCc2cccc(OC)c2)nc2cc(OC)c(OC)cc2c1=N
CC50 [10]: > 40 µM (active)

Cc1ccc(NS(=O)(=O)c2ccc(C(=O)N3CC(C)CC(C)C3)cc2)cc1 (stereo unspecified)
EC50 [4]: 4.22 µM (active)

CC(C)CC(C(=O)NC1CCCC1)N(Cc1ccc2c(c1)OCO2)C(=O)c1snc(C(N)=O)c1N (stereo unspecified)
IC50 [3]: > 20 µM (inactive)

NC(=O)c1nsc(C(=O)N(c2cccc(F)c2)C(C(=O)NC2CCCC2)c2ccc(O)cc2)c1N (stereo unspecified)
IC50 [3]: > 20 µM (inactive)

COc1ccccc1N1C(=O)C2ON(c3ccccc3)C(c3ccc(N(C)C)cc3)C2C1=O (stereo unspecified)
IC50 [9]: 9.03 µM (not active)

CCOC(=O)C1=C(O)c2ccccc2C(=O)/C1=C\c1ccc(CC)cc1
EC50 (Protein RecA): 8.86 µM (active)
EC50 [11]: 13 µM (active)
EC50 (Streptokinase A): > 150 µM (not active)
EC50 (Streptococcus): 38.1 µM (active)
AC50 [12]: 4.44 µM (active)
IC50 [9]: 7.19 µM (active)

COc1cc(-c2ccc3oc(-c4ccsc4)cc(=O)c3c2)cc(OC)c1OC
CC50 [10]: 14.3 µM (active)
IC50 (H9c2): > 79 µM (inactive)

N#Cc1c(O)nsc1Nc1ccccc1Cl
IC50 [1]: > 50 µM (inactive)
IC50 [2]: 4.76 µM (active)
